From PMC6346587, “Glucose 6-phosphate dehydrogenase 6-phosphogluconolactonase: characterization of the Plasmodium vivax enzyme and inhibitor studies” (Malaria Journal, 2019)

Target: T1, PfGluPho (Plasmodium falciparum, UniProt Q8IKU0)
T1 construct: made in house
T1 sequence (Q8IKU0 1-910): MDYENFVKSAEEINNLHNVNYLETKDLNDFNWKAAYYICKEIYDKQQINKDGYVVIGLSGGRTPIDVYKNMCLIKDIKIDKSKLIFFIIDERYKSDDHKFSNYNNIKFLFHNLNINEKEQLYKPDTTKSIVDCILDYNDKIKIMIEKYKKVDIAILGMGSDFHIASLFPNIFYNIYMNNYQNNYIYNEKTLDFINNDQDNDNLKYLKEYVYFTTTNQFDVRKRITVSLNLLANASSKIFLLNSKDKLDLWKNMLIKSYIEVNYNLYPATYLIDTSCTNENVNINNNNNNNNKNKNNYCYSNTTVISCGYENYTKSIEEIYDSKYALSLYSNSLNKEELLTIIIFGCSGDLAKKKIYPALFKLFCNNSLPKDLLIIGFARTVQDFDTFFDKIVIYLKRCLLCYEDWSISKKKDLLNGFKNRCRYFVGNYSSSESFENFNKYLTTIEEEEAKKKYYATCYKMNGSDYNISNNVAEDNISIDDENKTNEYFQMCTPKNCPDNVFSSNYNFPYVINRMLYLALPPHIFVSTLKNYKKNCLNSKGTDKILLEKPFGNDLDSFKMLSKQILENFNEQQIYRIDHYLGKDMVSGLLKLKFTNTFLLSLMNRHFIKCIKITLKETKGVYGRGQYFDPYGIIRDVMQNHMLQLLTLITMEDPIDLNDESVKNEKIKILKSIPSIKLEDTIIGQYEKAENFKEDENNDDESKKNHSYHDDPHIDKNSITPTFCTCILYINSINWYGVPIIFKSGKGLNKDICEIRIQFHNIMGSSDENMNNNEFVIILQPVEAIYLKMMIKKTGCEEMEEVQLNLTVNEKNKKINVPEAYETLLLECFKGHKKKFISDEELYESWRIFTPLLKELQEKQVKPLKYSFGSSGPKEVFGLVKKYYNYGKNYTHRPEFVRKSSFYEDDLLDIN
Assay: PfGluPho G6PD activity inhibition assay
Format: biochemical
Description: To identify potential inhibitors of PvG6PD, compounds with already known effects on PfGluPho (ellagic acid and derivatives, ML304) were tested. Additionally, several compound libraries of the Helmholtz Center for Infection Research, Brunswick, were screened against PfGluPho using the high-throughput-compatible assay systems described in Preuss et al.. […] Based on structure-activity relationship studies, a set of new potential G6PD inhibitors (Fig. 8) was then synthesized and assessed. First, the IC50 values of the compounds were determined, followed by mechanistic characterization of the mode of action. To test for selectivity of the compounds, the IC50 values of the compounds on PvG6PD, PfGluPho, and hG6PD were determined in parallel.
All measurements were performed in 96-well plates, half area (Greiner Bio-One, Frickenhausen, Germany) using a Tecan Infinite M200 plate reader (Maennedorf, Switzerland). The compounds were dissolved in 100% DMSO and afterwards diluted in assay buffer to the required concentrations. Different compound concentrations were added to a mixture of enzyme and NADP^+ in assay buffer. Concentrations of substrates differed depending on the enzyme; an overview is given in the Additional file 4. The reaction was started by adding G6P, and the increase of NADPH was monitored by measuring the absorbance at 340 nm. To increase the sensitivity of the assay, some measurements were reproduced, detecting the fluorescence of NADPH at ex340/em460. […] A negative control containing no compound was defined as 0% inhibition; a positive control lacking the substrate G6P was defined as 100% inhibition. For evaluations using GraphPad Prism and Microsoft Excel, only a linear increase in absorbance/fluorescence was considered. For the mechanistic characterization of the compounds, either NADP^+ or G6P were titrated at different compound concentrations around the IC50, while keeping the second substrate in saturation. The initial slope was plotted as Michaelis–Menten curves and Lineweaver–Burk plots using GraphPad Prism; KM values and Vmax were calculated with GraphPad Prism software.

## CCN1CCC[C@@H]1CNC(=O)c1ccc2c(c1)NC(=O)c1cccc(C)c1S2 [ML304]
G6P titrated
  Type of inhibition of PfGluPho towards G6P: competes with G6P
NADP+ titrated
  Type of inhibition of PfGluPho towards NADP+: non-competitive inhibitor
Competes with G6P, read-out: Ki on PfGluPho towards G6P
  Ki: 230 ± 160 nM
